In BindingDB's records for patent US20250034165 (Chia Tai Tianqing Pharmaceutical Group, 2025) one finds IC50 data, which are given here for 14 compounds.

Each structure is given as a SMILES string. pIC50: −log10 of the molar value.

In test [1] the target is Epidermal growth factor receptor (Homo sapiens, UniProt P00533). As to the kind of experiment: Inhibitory Activity for EGFR (WT) Kinase. The method, then:
A 50 ng/μL EGFR (WT, Carna) stock solution was diluted with a kinase buffer (50 mM HEPES, 10 mM MgCl2, 2 mM DTT, 1 mM EGTA, 0.01% Tween 20), and 6 μL of 1.67× working solution at 0.005 ng/μL (final concentration: 0.003 ng/μL) was added to each well. Different compounds dissolved in DMSO were added to the wells using a nanoliter pipettor, resulting in the final concentrations of the compounds of 100 nM to 0.0244 nM (4-fold gradient for 7 concentrations in total), and blank control wells (without enzyme) and negative control wells (with enzyme, plus vehicle DMSO) were set, 2 replicate wells for each concentration. After enzyme was reacted with the compound or vehicle for 30 min, 5×ATP at 25 μM (final concentration: 5 μM, Sigma) prepared with a kinase buffer was mixed with 5× substrate at 0.5 μM (final concentration: 0.1 μM, ULight-poly GT, PerkinElmer) at a ratio of 1:1 (v:v), and the mixture was added to each well at 4 μL/well. After being sealed with a film, the plate was incubated at room temperature for 2 h, and then 5 μL of 4×EDTA at 40 mM (final concentration: 10 mM) was added to each well. After the plate was incubated for 5 min at room temperature, 5 μL of 4× detection reagent at 8 nM (final concentration: 2 nM, Eu-anti-phospho-tyrosine antibody, PerkinElmer) was added to each well.

The target in test [2] is Epidermal growth factor receptor [T790M,L858R] (Homo sapiens, UniProt P00533, L858R/T790M). As to the kind of experiment: Inhibitory Activity for EGFR (L858R/T790M) Kinase. A digest of the protocol: (§1)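 Recombinant EGFR L858R/T790M (0.0025 ng/μL final) pre-incubated 30 min with compound (10–0.0024 nM, 7 points) in HEPES/MgCl2/DTT buffer. Reaction run 2 h at room temperature with 5 μM ATP and 0.1 μM ULight-poly GT, then stopped with EDTA. Eu-anti-phosphotyrosine TR-FRET read; IC50 from four-parameter fit.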
Sequence of Epidermal growth factor receptor [T790M,L858R] (P00533 25-1210 T790M/L858R limits assumed): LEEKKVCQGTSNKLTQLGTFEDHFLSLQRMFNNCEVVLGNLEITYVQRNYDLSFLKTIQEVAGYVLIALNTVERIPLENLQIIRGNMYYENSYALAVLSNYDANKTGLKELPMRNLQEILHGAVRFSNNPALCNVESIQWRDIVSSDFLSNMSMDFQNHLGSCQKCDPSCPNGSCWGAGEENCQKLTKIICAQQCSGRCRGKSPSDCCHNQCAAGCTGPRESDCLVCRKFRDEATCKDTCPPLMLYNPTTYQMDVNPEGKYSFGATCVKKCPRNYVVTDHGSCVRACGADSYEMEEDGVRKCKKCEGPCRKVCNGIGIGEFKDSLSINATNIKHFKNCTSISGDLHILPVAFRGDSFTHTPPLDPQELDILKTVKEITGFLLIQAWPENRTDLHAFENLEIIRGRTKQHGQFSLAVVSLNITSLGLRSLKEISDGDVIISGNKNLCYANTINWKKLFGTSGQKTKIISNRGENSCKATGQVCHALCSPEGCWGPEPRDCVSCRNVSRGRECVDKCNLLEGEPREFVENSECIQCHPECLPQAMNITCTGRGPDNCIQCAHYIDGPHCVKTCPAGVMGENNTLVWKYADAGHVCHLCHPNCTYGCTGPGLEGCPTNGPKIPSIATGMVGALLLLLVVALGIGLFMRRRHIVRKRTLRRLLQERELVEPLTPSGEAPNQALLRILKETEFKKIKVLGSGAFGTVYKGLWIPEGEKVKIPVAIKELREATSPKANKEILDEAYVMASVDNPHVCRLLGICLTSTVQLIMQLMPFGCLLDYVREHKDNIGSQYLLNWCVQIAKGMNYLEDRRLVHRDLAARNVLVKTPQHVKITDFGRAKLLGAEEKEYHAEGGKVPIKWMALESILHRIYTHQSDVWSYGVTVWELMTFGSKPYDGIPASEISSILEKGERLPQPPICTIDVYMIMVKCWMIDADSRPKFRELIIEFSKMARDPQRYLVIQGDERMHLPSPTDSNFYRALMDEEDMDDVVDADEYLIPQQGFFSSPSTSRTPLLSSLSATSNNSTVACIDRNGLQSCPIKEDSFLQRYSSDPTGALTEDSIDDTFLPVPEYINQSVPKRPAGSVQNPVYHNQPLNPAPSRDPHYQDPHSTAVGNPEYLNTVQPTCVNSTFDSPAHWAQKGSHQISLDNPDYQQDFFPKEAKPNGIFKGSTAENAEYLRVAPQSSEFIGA

The target in test [3] is Epidermal growth factor receptor [T790M,C797S,L858R] (UniProt P00533, C797S/L858R/T790M). As to the kind of experiment: Inhibitory Activity for EGFR (L858R/T790M/C797S) Kinase. The essentials: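 Triple-mutant enzyme (0.001 ng/μL final) preincubated 30 min with compound (10 nM–0.0024 nM), then reacted 2 h at room temperature with 5 μM ATP and 0.1 μM ULight-poly GT. Stopped with EDTA, detected by Eu-anti-phospho-tyrosine TR-FRET; IC50 by four-parameter fit.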
Sequence of Epidermal growth factor receptor [T790M,C797S,L858R] (P00533 25-1210 T790M/C797S/L858R limits assumed): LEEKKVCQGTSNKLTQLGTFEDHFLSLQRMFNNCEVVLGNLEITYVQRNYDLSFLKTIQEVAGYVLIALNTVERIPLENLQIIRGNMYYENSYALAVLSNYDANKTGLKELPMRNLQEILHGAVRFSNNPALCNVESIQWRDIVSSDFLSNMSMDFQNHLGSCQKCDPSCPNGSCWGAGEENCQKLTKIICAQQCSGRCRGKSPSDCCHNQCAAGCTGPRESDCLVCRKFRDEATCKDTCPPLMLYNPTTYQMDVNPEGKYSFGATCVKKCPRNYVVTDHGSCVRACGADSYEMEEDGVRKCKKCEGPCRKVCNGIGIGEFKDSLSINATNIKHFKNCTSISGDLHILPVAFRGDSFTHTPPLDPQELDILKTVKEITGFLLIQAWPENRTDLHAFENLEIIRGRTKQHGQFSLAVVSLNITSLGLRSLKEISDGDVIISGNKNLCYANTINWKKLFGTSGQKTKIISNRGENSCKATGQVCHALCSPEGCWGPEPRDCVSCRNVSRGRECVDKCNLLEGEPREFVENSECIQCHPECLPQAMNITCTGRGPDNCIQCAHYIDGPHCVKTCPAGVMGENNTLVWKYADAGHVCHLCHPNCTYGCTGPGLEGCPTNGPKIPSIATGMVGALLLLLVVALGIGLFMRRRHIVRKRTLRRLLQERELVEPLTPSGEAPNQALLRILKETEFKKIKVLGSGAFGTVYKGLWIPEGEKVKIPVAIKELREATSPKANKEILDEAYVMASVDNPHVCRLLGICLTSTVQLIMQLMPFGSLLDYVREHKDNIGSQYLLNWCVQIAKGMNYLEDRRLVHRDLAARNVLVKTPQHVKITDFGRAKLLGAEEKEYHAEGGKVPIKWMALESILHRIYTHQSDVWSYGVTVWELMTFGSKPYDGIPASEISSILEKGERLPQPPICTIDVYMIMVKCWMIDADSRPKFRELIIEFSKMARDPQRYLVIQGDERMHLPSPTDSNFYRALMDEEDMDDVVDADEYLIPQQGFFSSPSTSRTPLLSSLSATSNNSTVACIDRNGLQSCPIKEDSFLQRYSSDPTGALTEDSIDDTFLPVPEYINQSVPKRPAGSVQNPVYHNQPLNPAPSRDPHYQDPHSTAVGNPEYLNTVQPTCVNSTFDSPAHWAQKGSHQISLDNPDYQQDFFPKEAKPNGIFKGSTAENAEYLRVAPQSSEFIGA

Test [4] has as its target Epidermal growth factor receptor (EGFR)(L858R)(T790M) (Homo sapiens, UniProt P00533, L858R/T790M). As to the kind of experiment: Inhibitory Activity for EGFR (L858R/T790M) Kinase. A digest of the protocol:
as §1

Sequence of Epidermal growth factor receptor (EGFR)(L858R)(T790M) (P00533 25-1210 T790M/L858R limits assumed): as the sequence (P00533 25-1210 T790M/L858R limits assumed) above
Sequence of Epidermal growth factor receptor (P00533 whole entry): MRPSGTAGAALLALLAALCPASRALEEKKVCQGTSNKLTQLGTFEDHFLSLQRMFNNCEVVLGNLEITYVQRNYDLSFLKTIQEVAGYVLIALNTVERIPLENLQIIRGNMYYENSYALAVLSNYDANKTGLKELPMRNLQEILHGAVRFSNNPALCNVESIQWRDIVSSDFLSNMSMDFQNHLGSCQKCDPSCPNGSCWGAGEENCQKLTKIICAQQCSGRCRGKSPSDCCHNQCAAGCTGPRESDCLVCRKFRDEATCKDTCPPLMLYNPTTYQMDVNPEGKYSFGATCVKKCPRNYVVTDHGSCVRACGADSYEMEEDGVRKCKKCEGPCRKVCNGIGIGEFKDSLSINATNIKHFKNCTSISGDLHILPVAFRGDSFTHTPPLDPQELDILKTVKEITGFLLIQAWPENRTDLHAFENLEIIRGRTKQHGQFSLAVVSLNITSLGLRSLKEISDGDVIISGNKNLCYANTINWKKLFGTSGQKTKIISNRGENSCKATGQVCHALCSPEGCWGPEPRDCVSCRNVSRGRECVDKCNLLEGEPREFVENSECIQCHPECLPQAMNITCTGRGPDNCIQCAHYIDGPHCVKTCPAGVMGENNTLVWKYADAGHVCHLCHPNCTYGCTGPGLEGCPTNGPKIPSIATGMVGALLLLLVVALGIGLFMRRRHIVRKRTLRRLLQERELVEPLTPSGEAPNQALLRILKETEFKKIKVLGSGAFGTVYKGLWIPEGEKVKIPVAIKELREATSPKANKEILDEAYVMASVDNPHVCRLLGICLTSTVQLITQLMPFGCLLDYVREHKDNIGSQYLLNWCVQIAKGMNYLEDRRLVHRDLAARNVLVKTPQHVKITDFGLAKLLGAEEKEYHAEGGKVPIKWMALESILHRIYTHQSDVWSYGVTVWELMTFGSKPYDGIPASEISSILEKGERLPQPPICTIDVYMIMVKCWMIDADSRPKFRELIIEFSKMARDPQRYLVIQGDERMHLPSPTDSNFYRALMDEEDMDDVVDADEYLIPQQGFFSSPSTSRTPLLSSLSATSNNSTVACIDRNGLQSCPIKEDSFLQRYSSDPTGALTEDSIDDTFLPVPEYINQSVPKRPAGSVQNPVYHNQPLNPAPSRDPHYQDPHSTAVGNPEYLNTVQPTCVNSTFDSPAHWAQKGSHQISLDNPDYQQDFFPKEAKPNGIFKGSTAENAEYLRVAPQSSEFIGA

As usually defined, the pIC50 is the negative decadic logarithm of the IC50, by convention in mol/L. Take `CNCCCCNc1ccc2c(c1)N/C1=N/C(=O)c3cc(C)nc(c3)-c3cnn(C)c3OCCC[C@@H](C3CC3)CN12` [US20250034165, Example 52]: the pIC50 in test [1] was 9.24; in test [2], 10.59; in test [3], 10.46.
For `[2H]C([2H])([2H])N(C[C@H](C)Nc1ccc2c(c1)N/C1=N/C(=O)c3cc(C)nc(c3)-c3cnn(C)c3OCCC[C@@H](C3CC3)CN12)C([2H])([2H])[2H]` [US20250034165, Example 124], the pIC50 in test [2] was 9.66; in test [3] it was 9.80.
For `[2H]C([2H])([2H])N(C[C@H](C)Nc1ccc2c(c1)N1C[C@H](C3CC3)CCCOc3c(cnn3C)-c3cc(cc(C)n3)C(=O)/N=C\1N2)C([2H])([2H])[2H]` [US20250034165, Example 123], in test [2], the pIC50 was 9.80.
As to `[2H]C([2H])([2H])N(C[C@@H](C)Nc1ccc2c(c1)N/C1=N/C(=O)c3cc(C)nc(c3)-c3cnn(C)c3OCCC[C@@H](C3CC3)CN12)C([2H])([2H])[2H]` [US20250034165, Example 146], the figures for the pIC50 in test [2] and in test [3] were 9.28 and 9.12, respectively.
In the case of `Cc1cc2cc(n1)-c1cnn(C)c1OCCC[C@@H](C1CC1)CN1/C(=N/C2=O)Nc2cc(NC3CCN(C)CC3)ccc21` [US20250034165, Example 10], the negative-log IC50 (pIC50) in test [1] is 9.92; in test [4], 10.70; in test [3], 10.72.
For the compound `Cc1cc2cc(n1)-c1cnn(C)c1OCCC[C@@H](C1CC1)CN1/C(=N/C2=O)Nc2cc(NC3C(C)(C)OC3(C)C)ccc21` [US20250034165, Example 31], the pIC50 in test [1] was 8.66; in test [4], 10.42; in test [3] it was 10.38.
The matching figures for `Cc1cc2cc(n1)-c1cnn(C)c1OCCC[C@@H](C1CC1)CN1/C(=N/C2=O)Nc2cc(N(C)C3COC3)ccc21` [US20250034165, Example 41]: 8.96, 10.74 and 10.68.
On the same counts, the results for `Cc1cc2cc(n1)-c1cnn(C3CC3)c1OCCC[C@@H](C)CN1/C(=N/C2=O)Nc2cc(N[C@@H]3CCOC3)ccc21` [US20250034165, Example 13] are 8.70, 10.06 and 10.02.
On the same counts, the results for `Cc1cc2cc(n1)-c1cnn(C)c1OCCC[C@@H](C1CC1)CN1/C(=N/C2=O)Nc2cc(NCC3(C)COC3)ccc21` [US20250034165, Example 40] are 8.80, 10.57 and 10.52.
Take `Cc1cc2cc(n1)-c1cnn(C)c1OCCC[C@@H](C1CC1)CN1/C(=N/C2=O)Nc2cc(NCCN(C)C)ccc21` [US20250034165, Example 42]: the figures for the pIC50 in test [1], in test [4] and in test [3] were 9.17, 10.89 and 10.96, respectively.
For `Cc1cc2cc(n1)-c1cnn(C)c1OCCC[C@@H](C1CC1)CN1/C(=N/C2=O)Nc2cc(NCCCCN)ccc21` [US20250034165, Example 53], the pIC50 is 9.14 in test [1], 10.96 in test [4] and 10.85 in test [3].
`CCN1CCC(Nc2ccc3c(c2)N/C2=N\C(=O)c4cc(C)nc(c4)-c4cnn(C)c4OCCC[C@@H](C4CC4)CN23)CC1` [US20250034165, Example 48]: the values for the pIC50 in test [1] and in test [2] were 9.29 and 10.64, respectively.
As to `CNCCCNc1ccc2c(c1)N/C1=N\C(=O)c3cc(C)nc(c3)-c3cnn(C)c3OCCC[C@@H](C3CC3)CN12` [US20250034165, Example 49], the pIC50 in test [1] is 8.66; in test [2], 10.32; in test [3], 10.29.
Regarding `Cc1cc2cc(n1)-c1cnn(C)c1OCCC[C@@H](C1CC1)CN1/C(=N/C2=O)Nc2ccc(N(C)CCN(C)C)cc21` [US20250034165, Example 45], the pIC50 in test [1] was 9.02; in test [4], 10.70; in test [3] it was 10.62.
